Measured values taken from US6274715A, “Tricyclic erythromycin derivatives” (priority 1997, dated 2001).
In brackets after ≈: the same amount, converted by molar mass.

Columns and labels:
Format in all cases: cell-based
[1] = system: STAPHYLOCOCCUS AUREUS ATCC 6538P; experiment: In vitro antibacterial activity, MIC, BHI agar dilution; conditions: S. aureus ATCC 6538P, 35-37° C., 20 to 24 hours, unit assumed
[2] = system: STAPHYLOCOCCUS AUREUS A5177; experiment: as above; conditions: S. aureus A5177, unit assumed
[3] = system: STAPHYLOCOCCUS AUREUS A-5278; experiment: as above; conditions: S. aureus A-5278, unit assumed
[4] = system: STAPHYLOCOCCUS AUREUS CMX 642A; experiment: as above; conditions: S. aureus CMX 642A, unit assumed
[5] = system: STAPHYLOCOCCUS AUREUS NCTC10649M; experiment: as above; conditions: S. aureus NCTC10649M, unit assumed
[6] = system: STAPHYLOCOCCUS AUREUS CMX 553; experiment: as above; conditions: S. aureus CMX 553, unit assumed
[7] = system: STAPHYLOCOCCUS AUREUS 1775; experiment: as above; conditions: S. aureus 1775, unit assumed
[8] = system: STAPHYLOCOCCUS EPIDERMIDIS 3519; conditions: S. epidermidis 3519; BHI agar; unit assumed
EN[…] ATCC 8043 = experiment: In vitro antibacterial activity, MIC, BHI agar dilution; conditions: E. faecium ATCC 8043, unit assumed
In short: (§1)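 MIC was read visually as the lowest drug concentration showing no growth, a slight haze or sparsely isolated colonies relative to a compound-free BHI plate. Plates held serial aqueous dilutions in BHI agar, were spot-inoculated with 1:100 (or 1:10) culture dilutions and incubated 20 to 24 hours at 35-37° C.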

M[…] ATCC 4698 = experiment: as above; conditions: M. luteus ATCC 4698, unit assumed
In short: as §1

M[…] ATCC 9341 = experiment: as above; conditions: M. luteus ATCC 9341, unit assumed
In short: as §1

STR[…] 508 = experiment: as above; conditions: S. agalactiae CMX 508, unit assumed
In short: as §1

[9] = system: STREPTOCOCCUS BOVIS A-5169; experiment: as above; conditions: S. bovis A-5169, unit assumed
[10] = system: STREPTOCOCCUS PYOGENES EES61; experiment: as above; conditions: S. pyogenes EES61, unit assumed
[11] = system: STREPTOCOCCUS PYOGENES 930; experiment: as above; conditions: S. pyogenes 930, unit assumed
[12] = system: STREPTOCOCCUS PYOGENES PIU 2548; experiment: as above; conditions: S. pyogenes PIU 2548, unit assumed
ESCHERICHIA COLI SS = experiment: as above; conditions: E. coli SS, unit assumed
ESCHERICHIA COLI DC-2 = experiment: as above; conditions: E. coli DC-2, unit assumed
ESCHERICHIA COLI H560 = experiment: as above; conditions: E. coli H560, unit assumed
ESCHERICHIA COLI KNK 437 = conditions: E. coli KNK 437; BHI agar; unit assumed
[13] = system: ENTEROBACTER AEROGENES ATCC 13048; experiment: In vitro antibacterial activity, MIC, BHI agar dilution; conditions: E. aerogenes ATCC 13048, unit assumed
[14] = system: KLEBSIELLA PNEUMONIAE ATCC 8045; experiment: as above; conditions: K. pneumoniae ATCC 8045, unit assumed
[15] = system: PROVIDENCIA STUARTII CMX 640; conditions: P. stuartii CMX 640; BHI agar; unit assumed
[16] = system: PSEUDOMONAS AERUGINOSA BMH10; experiment: In vitro antibacterial activity, MIC, BHI agar dilution; conditions: P. aeruginosa BMH10, unit assumed
[17] = system: PSEUDOMONAS AERUGINOSA 5007; experiment: as above; conditions: P. aeruginosa 5007, unit assumed
[18] = system: PSEUDOMONAS AERUGINOSA K799/WT; experiment: as above; conditions: P. aeruginosa K799/WT, unit assumed
[19] = system: PSEUDOMONAS AERUGINOSA K799/61; experiment: as above; conditions: P. aeruginosa K799/61, unit assumed
PSEUDOMONAS CEPACIA 296I = experiment: as above; conditions: P. cepacia 296I, unit assumed
[20] = system: ACINETOBACTER CALCOACETICUS CMX 669; experiment: as above; conditions: A. calcoaceticus CMX 669, unit assumed
[21] = system: PSEUDOMONAS AERUGINOSA DPHD-5263; experiment: as above; conditions: P. aeruginosa DPHD-5263, unit assumed
[22] = system: PSEUDOMONAS AERUGINOSA DPHD-2862; experiment: as above; conditions: P. aeruginosa DPHD-2862, unit assumed
CANDIDA ALBICANS CCH 442 = experiment: as above; conditions: C. albicans CCH 442, unit assumed
[23] = system: MYCOBACTERIUM SMEGMATIS ATCC 114; experiment: as above; conditions: M. smegmatis ATCC 114, unit assumed
H. Influenza Dill AMP R = experiment: In vitro antibacterial activity against H. Influenza Dill AMP R, MIC; conditions: separate assay, unit assumed
Experimental: Representative compounds of the present invention were assayed in vitro for antibacterial activity as follows: Twelve petri dishes containing successive aqueous dilutions of the test compound mixed with 10 mL of sterilized Brain Heart Infusion (BHI) agar (Difco 0418-01-5) were prepared. Each plate was inoculated with 1:100 (or 1:10 for slow-growing strains, such as Micrococcus and Streptococcus) dilutions of up to 32 different microorganisms, using a Steers replicator block. The inoculated plates were incubated at 35-37° C. for 20 to 24 hours. In addition, a control plate, using BHI agar containing no test compound, was prepared and incubated at the beginning and end of each test.
After incubation, each plate was visually inspected. The minimum inhibitory concentration (MIC) was defmed as the lowest concentration of drug yielding no growth, a slight haze, or sparsely isolated colonies on the inoculum spot as compared to the growth control.
In a separate assay representative compounds of the invention were assayed in vitro for antibacterial activity against the H. Influenza Dill AMP R strain, according to the protocol described above.

ESCHERICHIA COLI JUHL = conditions: E. coli JUHL; BHI agar; unit assumed

SMILES | MIC [1] [µg/mL] | MIC [2] [µg/mL] | MIC [3] [µg/mL] | MIC [4] [µg/mL] | MIC [5] [µg/mL] | MIC [6] [µg/mL] | MIC [7] [µg/mL] | MIC [8] [µg/mL] | MIC (EN[…] ATCC 8043) [µg/mL] | MIC (M[…] ATCC 4698) [µg/mL] | MIC (M[…] ATCC 9341) [µg/mL] | MIC (STR[…] 508) [µg/mL] | MIC [9] [µg/mL] | MIC [10] [µg/mL] | MIC [11] [µg/mL] | MIC [12] [µg/mL] | MIC (ESCHERICHIA COLI SS) [µg/mL] | MIC (ESCHERICHIA COLI DC-2) [µg/mL] | MIC (ESCHERICHIA COLI H560) [µg/mL] | MIC (ESCHERICHIA COLI KNK 437) [µg/mL] | other results
CC[C@H]1OC(=O)[C@H](C)C(=O)[C@H](C)[C@@H](O[C@@H]2O[C@H](C)C[C@H](N(C)C)[C@H]2O)[C@](C)(OC)C[C@@H](C)C2=N[C@@H]3COC[C@@H]3N3C(=O)O[C@@]1(C)[C@H]3[C@H]2C [Example 18] | 0.39 (≈ 0.574 µM) | 0.78 (≈ 1.15 µM) | > 100 | 0.78 (≈ 1.15 µM) | 0.78 (≈ 1.15 µM) | 0.78 (≈ 1.15 µM) | > 100 | 0.78 (≈ 1.15 µM) | 0.1 (≈ 0.147 µM) | 0.78 (≈ 1.15 µM) | 0.05 (≈ 0.0735 µM) | 0.05 (≈ 0.0735 µM) | 0.05 (≈ 0.0735 µM) | 0.05 (≈ 0.0735 µM) | > 100 | 0.39 (≈ 0.574 µM) | 0.78 (≈ 1.15 µM) | > 100 | > 100 | > 100 | MIC [13]: > 100 µg/mL; MIC [14]: > 100 µg/mL; MIC [15]: > 100 µg/mL; MIC [16]: > 100 µg/mL; MIC [17]: > 100 µg/mL; MIC [18]: > 100 µg/mL; MIC [19]: 6.2 µg/mL (≈ 9.12 µM); MIC (PSEUDOMONAS CEPACIA 296I): > 100 µg/mL; MIC [20]: > 100 µg/mL; MIC [21]: > 100 µg/mL; MIC [22]: > 100 µg/mL; MIC (CANDIDA ALBICANS CCH 442): > 100 µg/mL; MIC [23]: 3.1 µg/mL (≈ 4.56 µM); MIC (H. Influenza Dill AMP R): 8 µg/mL (≈ 11.8 µM)
CC[C@H]1OC(=O)[C@H](C)C(=O)[C@H](C)[C@@H](O[C@@H]2O[C@H](C)C[C@H](N(C)C)[C@H]2O)[C@](C)(OC)C[C@@H](C)C2=NC3CN(CCc4cccc([N+](=O)[O-])c4)CC3N3C(=O)O[C@@]1(C)[C@H]3[C@H]2C (some centres unmarked) [Example 120] | 0.2 (≈ 0.242 µM) | 0.2 (≈ 0.242 µM) | > 100 | 0.2 (≈ 0.242 µM) | 0.2 (≈ 0.242 µM) | 0.2 (≈ 0.242 µM) | > 100 | 0.39 (≈ 0.471 µM) | 0.05 (≈ 0.0604 µM) | 0.2 (≈ 0.242 µM) | 0.02 (≈ 0.0242 µM) | 0.01 (≈ 0.0121 µM) | 0.01 (≈ 0.0121 µM) | 0.01 (≈ 0.0121 µM) | > 100 | 0.39 (≈ 0.471 µM) | 0.39 (≈ 0.471 µM) | 50 (≈ 60.4 µM) | 50 (≈ 60.4 µM) | > 100 | MIC (ESCHERICHIA COLI JUHL): 50 µg/mL (≈ 60.4 µM); MIC [13]: > 100 µg/mL; MIC [14]: > 100 µg/mL; MIC [15]: > 100 µg/mL; MIC [16]: > 100 µg/mL; MIC [17]: > 100 µg/mL; MIC [18]: > 100 µg/mL; MIC [19]: 0.78 µg/mL (≈ 0.942 µM); MIC (PSEUDOMONAS CEPACIA 296I): 100 µg/mL (≈ 121 µM); MIC [21]: > 100 µg/mL; MIC [22]: > 100 µg/mL; MIC (CANDIDA ALBICANS CCH 442): > 100 µg/mL; MIC [23]: 0.78 µg/mL (≈ 0.942 µM); MIC (H. Influenza Dill AMP R): 4 µg/mL (≈ 4.83 µM)
